System: SW1 tumors
Assay: Control vs. L-fucose ± FTY720 model: tumor growth and flow cytometric profiling of tumors and lymph nodes (Table 1)
Assay type: in vivo, C3H/HeN mice
Protocol: FIGS. 15A-15E Lymph node egress is necessary for L-fucose-triggered tumor suppression; L-fucose increases intratumoral CD4+T stem and central memory cells. (a) Immune subpopulations markers use to profile by flow cytometry. (b) Volumetric growth curves for SW1 tumors in C3H/HeN mice fed without (Ctl) or with L-fucose (LF) and treated with FTY720 (Ctl mice administered FTY720: (FTY); LF-supplemented mice administered FTY720: (L+F)). FTY720 was administered at 20 μg per mouse every 2 days starting on Day 12, just prior to the initiation of LF (c) Pie charts showing ratios of intratumoral or lymph node-resident CD4+ or CD8+T cell subpopulations, as well as DC subtypes from mice at Day 14, 28, and 42 (each pie chart represents 4-5 mice). Assessment of cytotoxic CD4+ T cell populations (CRTAM+) and cytotoxic CD8+ T cell populations (GrzB+) from tumors at Day 28 (d) and Day 42 (e). The tumor growth curves are means±SEM from ≥7 mice per group. *=p<0.05.
Tumors of SW1 or SM1 melanoma cells from […] or C57BL/6 mice, respectively) were digested using 1× tumor digest buffer (0.5 mg/mL Collagenase I, 0.5 mg/mL Collagenase IV, 0.25 mg/mL Hyalyronidase V, 0.1 mg/mL DNAse I in HBSS (Millipore Sigma (St. Louis, MO)). Tumors were homogenized using the Miltenyi MACs dissociator. Red blood cells were lysed using ACK lysis buffer (Life Technologies, (Grand Island, NY)). Tumor homogenate cells were counted using a standard hemocytometer.
Total TILs were gated first to single cells (based on forward scatter height vs width, followed by side scatter height vs. width). Live cells were gated from the Zombie negative population from the population above. TILs were gated based on splenocyte size from a control spleen. Individual immune subpopulations were sub-gated from the total TIL population using the following staining criteria: CD3+ for CD3+ T cells; CD3+/CD4+/CD8− for CD4+T cells; CD3+/CD4−/CD8+ for CD8+ T cells, CD11c+/CD11b+ for DCs; either NK1.1 (for C57/BL6 mice) or DX5 (for C3H/HeJ) for NK cells; CD11b+/GR1+ for MDSC-like cells; and F4/80+ for macrophages. Single-cell suspensions from tumor and spleen tissue were stained with Live/Dead Zombie NIR (Biolegend, (San Diego, CA)) at 1:1,000 in PBS for 20 min. Cell suspensions were spun down and stained with the following with antibodies at 0.5 μg/ml per antibody: APC anti-mouse CD3, Pacific Blue anti-mouse CD4, BV785 anti-mouse CD8, PerCP anti-mouse CD25, FITC anti-mouse F4/80, PeCy7 anti-mouse CD11c, PE anti-mouse NK1.1 or PE anti-mouse DX5, and PerCP-Cy5.5 anti-mouse CD11 b. After staining, the cells were washed and fixed (2% formaldehyde), followed by another wash and flow cytometric analysis. The compensation controls were prepared using 0.5 μg/mL of each antibody with UltraComp eBeads, (ThermoFisher Scientific (Waltham, MA)). All samples were subject to flow cytometric profiling using a LSR Flow Cytometer (BD Biosciences (San Jose, CA)) and analysis as indicated using FlowJo software (BD Biosciences (San Jose, CA)).
SW1 or SM1 mouse melanoma cells were injected into syngeneic C3H/HeN (or NSG) female or C57BL/6 male mice, respectively. Cells were injected as follows: parental SW1 cells for FIG. 13A; parental SM1 cells for FIG. 13E; SW1 cells stably expressing either empty vector (EV) or mouse fucose kinase (mFuk) for FIG. 1L; and parental SW1 cells for FIG. 13M. FTY720 was administered at 20 μg every 2 days starting on Day 12, just prior to the initiation of LF, until endpoint.

## CCCCCCCCc1ccc(CCC(N)(CO)CO)cc1 [FTY720, reference compound]
Day 28, lymph nodes
  CD4 central memory, average # of cells: 1362.38 per 10^6 cells of total tumor
  CD4 effector memory, average # of cells: 372.53 per 10^6 cells of total tumor
  CD4 naïve, average # of cells: 20717.91 per 10^6 cells of total tumor
  CD4 stem central memory, average # of cells: 24893.27 per 10^6 cells of total tumor
  CD8 central memory, average # of cells: 85.45 per 10^6 cells of total tumor
  CD8 effector memory, average # of cells: 421.08 per 10^6 cells of total tumor
  CD8 naïve, average # of cells: 6153.14 per 10^6 cells of total tumor
  CD8 stem central memory, average # of cells: 311.59 per 10^6 cells of total tumor
  cDC1, average # of cells: 147.79 per 10^6 cells of total tumor
  cDC2, average # of cells: 448.71 per 10^6 cells of total tumor
  moDC, average # of cells: 41.74 per 10^6 cells of total tumor
Day 28, tumors
  CD4 central memory, average # of cells: 11.56 per 10^6 cells of total tumor
  CD4 effector memory, average # of cells: 336.07 per 10^6 cells of total tumor
  CD4 naïve, average # of cells: 60.03 per 10^6 cells of total tumor
  CD4 stem central memory, average # of cells: 0.87 per 10^6 cells of total tumor
  CD8 central memory, average # of cells: 1.22 per 10^6 cells of total tumor
  CD8 effector memory, average # of cells: 54.02 per 10^6 cells of total tumor
  CD8 naïve, average # of cells: 24.54 per 10^6 cells of total tumor
  CD8 stem central memory, average # of cells: 0.00 per 10^6 cells of total tumor
  cDC1, average # of cells: 463.94 per 10^6 cells of total tumor
  cDC2, average # of cells: 8181.08 per 10^6 cells of total tumor
  moDC, average # of cells: 7526.28 per 10^6 cells of total tumor
Day 42, lymph nodes
  CD4 central memory, average # of cells: 949.35 per 10^6 cells of total tumor
  CD4 effector memory, average # of cells: 3499.07 per 10^6 cells of total tumor
  CD4 naïve, average # of cells: 65491.17 per 10^6 cells of total tumor
  CD4 stem central memory, average # of cells: 742.12 per 10^6 cells of total tumor
  CD8 central memory, average # of cells: 949.35 per 10^6 cells of total tumor
  CD8 effector memory, average # of cells: 3499.07 per 10^6 cells of total tumor
  CD8 naïve, average # of cells: 65491.17 per 10^6 cells of total tumor
  CD8 stem central memory, average # of cells: 742.12 per 10^6 cells of total tumor
  cDC1, average # of cells: 1731.49 per 10^6 cells of total tumor
  cDC2, average # of cells: 3881.72 per 10^6 cells of total tumor
  moDC, average # of cells: 1219.26 per 10^6 cells of total tumor
Day 42, tumors
  CD4 central memory, average # of cells: 32.54 per 10^6 cells of total tumor
  CD4 effector memory, average # of cells: 160.89 per 10^6 cells of total tumor
  CD4 naïve, average # of cells: 44.22 per 10^6 cells of total tumor
  CD4 stem central memory, average # of cells: 18.52 per 10^6 cells of total tumor
  CD8 central memory, average # of cells: 5.73 per 10^6 cells of total tumor
  CD8 effector memory, average # of cells: 220.02 per 10^6 cells of total tumor
  CD8 naïve, average # of cells: 19.42 per 10^6 cells of total tumor
  CD8 stem central memory, average # of cells: 0.00 per 10^6 cells of total tumor
  cDC1, average # of cells: 607.65 per 10^6 cells of total tumor
  cDC2, average # of cells: 279.84 per 10^6 cells of total tumor
  moDC, average # of cells: 197.56 per 10^6 cells of total tumor
FIG. 15c
  intratumoral CD4+T central and effector memory subpopulations: abrogated

From patent publication US20240197761A1, “FUCOSYLATION AND IMMUNE MODULATION IN CANCER” (H. LEE MOFFITT CANCER CENTER AND RESEARCH INSTITUTE, INC., priority 2021, published 2024)
